Laboratory results taken from ChEMBL document CHEMBL3885881, “DrugMatrix”.

Organism: Rattus norvegicus
Experiment: DrugMatrix - Regimen: Daily Repeat
Assay type: toxicity, organism-based, Sprague-Dawley
Set-up: regimen Daily Repeat, gender Male, age 6-8 weeks
Details: in vivo, ip, 50 mg/kg, route intraperitoneal, dose level High, […]; for ABSOLUTE BASOPHIL / ABSOLUTE EOSINOPHIL / ABSOLUTE LYMPHOCYTE / ABSOLUTE MONOCYTE / ABSOLUTE SEGMENTED NEUTROPHIL / BASOPHIL / EOSINOPHIL / ERYTHROCYTE COUNT / HEMATOCRIT / HEMOGLOBIN / LEUKOCYTE COUNT / LYMPHOCYTE / MEAN CORPUSCULAR HEMOGLOBIN / MEAN CORPUSCULAR HEMOGLOBIN CONCENTRATION / MEAN CORPUSCULAR VOLUME / MONOCYTE / NEUTROPHIL / NUCLEATED RED BLOOD CELLS / PLATELET COUNT: tissue Blood; for ALANINE AMINOTRANSFERASE / ALBUMIN / ALKALINE PHOSPHATASE / ASPARTATE AMINOTRANSFERASE / BLOOD UREA NITROGEN / CARBON DIOXIDE / CHLORIDE / CHOLESTEROL / CREATININE / GLUCOSE / LACTATE DEHYDROGENASE / LIPASE / PHOSPHORUS / POTASSIUM / SODIUM / TOTAL BILIRUBIN / TOTAL PROTEIN / URIC ACID: tissue Plasma

## ClC(Cl)=C(Cl)C(Cl)=C(Cl)Cl [HEXACHLOROBUTADIENE]
72 h, time 3 day
  ABSOLUTE BASOPHIL: 0 CELLS/uL
  ABSOLUTE EOSINOPHIL: 265.33 CELLS/uL
  ABSOLUTE LYMPHOCYTE: 14659.33 CELLS/uL
  ABSOLUTE MONOCYTE: 513.33 CELLS/uL
  ABSOLUTE SEGMENTED NEUTROPHIL: 2862 CELLS/uL
  BASOPHIL: 0%
  EOSINOPHIL: 1.33%
  ERYTHROCYTE COUNT: 6.15 x10E6/uL
  HEMATOCRIT: 36.87%
  HEMOGLOBIN: 13.3 G/DL
  LEUKOCYTE COUNT: 18.3 x10E3/uL
  LYMPHOCYTE: 80.67%
  MEAN CORPUSCULAR HEMOGLOBIN: 21.63 pg
  MEAN CORPUSCULAR HEMOGLOBIN CONCENTRATION: 36.1 G/DL
  MEAN CORPUSCULAR VOLUME: 60 fL
  MONOCYTE: 2.67%
  NEUTROPHIL: 15.33%
  NUCLEATED RED BLOOD CELLS: 0 /100WBC
  PLATELET COUNT: 1031 x10E3/uL
  ALANINE AMINOTRANSFERASE: 36.33 u/L
  ALBUMIN: 4.23 G/DL
  ALKALINE PHOSPHATASE: 328.33 u/L
  ASPARTATE AMINOTRANSFERASE: 101 u/L
  BLOOD UREA NITROGEN: 11.67 mg/dL
  CARBON DIOXIDE: 30.33 mmol/L
  CHLORIDE: 102 MEQ/L
  CHOLESTEROL: 84.67 mg/dL
  CREATININE: 0.16 mg/dL
  GLUCOSE: 173 mg/dL
  LACTATE DEHYDROGENASE: 166 u/L
  LIPASE: 9.67 u/L
  PHOSPHORUS: 11.6 mg/dL
  POTASSIUM: 6.25 MEQ/L
  SODIUM: 147.3 MEQ/L
  TOTAL BILIRUBIN: 0.13 mg/dL
  TOTAL PROTEIN: 6.3 G/DL
  URIC ACID: 2.6 mg/dL
120 h, time 5 day
  ABSOLUTE BASOPHIL: 0 CELLS/uL
  ABSOLUTE EOSINOPHIL: 230 CELLS/uL
  ABSOLUTE LYMPHOCYTE: 9645 CELLS/uL
  ABSOLUTE MONOCYTE: 302 CELLS/uL
  ABSOLUTE SEGMENTED NEUTROPHIL: 1323 CELLS/uL
  BASOPHIL: 0%
  EOSINOPHIL: 2%
  ERYTHROCYTE COUNT: 5.76 x10E6/uL
  HEMATOCRIT: 36.65%
  HEMOGLOBIN: 13.3 G/DL
  LEUKOCYTE COUNT: 11.5 x10E3/uL
  LYMPHOCYTE: 84.5%
  MEAN CORPUSCULAR HEMOGLOBIN: 23.1 pg
  MEAN CORPUSCULAR HEMOGLOBIN CONCENTRATION: 36.25 G/DL
  MEAN CORPUSCULAR VOLUME: 63.6 fL
  MONOCYTE: 2.5%
  NEUTROPHIL: 11%
  NUCLEATED RED BLOOD CELLS: 0 /100WBC
  PLATELET COUNT: 1216 x10E3/uL
  ALANINE AMINOTRANSFERASE: 39 u/L
  ALBUMIN: 4.3 G/DL
  ALKALINE PHOSPHATASE: 279.5 u/L
  ASPARTATE AMINOTRANSFERASE: 100.5 u/L
  BLOOD UREA NITROGEN: 11.5 mg/dL
  CARBON DIOXIDE: 32.5 mmol/L
  CHLORIDE: 101 MEQ/L
  CHOLESTEROL: 106 mg/dL
  CREATININE: 0.19 mg/dL
  GLUCOSE: 171.5 mg/dL
  LACTATE DEHYDROGENASE: 160.5 u/L
  LIPASE: 9.5 u/L
  PHOSPHORUS: 13.95 mg/dL
  POTASSIUM: 6 MEQ/L
  SODIUM: 147.1 MEQ/L
  TOTAL BILIRUBIN: 0.2 mg/dL
  TOTAL PROTEIN: 6.6 G/DL
  URIC ACID: 1.75 mg/dL
Time 14 day
  ABSOLUTE BASOPHIL: 0 CELLS/uL
  ABSOLUTE EOSINOPHIL: 146.4 CELLS/uL
  ABSOLUTE LYMPHOCYTE: 11678.6 CELLS/uL
  ABSOLUTE MONOCYTE: 306.2 CELLS/uL
  ABSOLUTE SEGMENTED NEUTROPHIL: 1488.8 CELLS/uL
  BASOPHIL: 0%
  EOSINOPHIL: 1.2%
  ERYTHROCYTE COUNT: 6.11 x10E6/uL
  HEMATOCRIT: 35.9%
  HEMOGLOBIN: 13.2 G/DL
  LEUKOCYTE COUNT: 13.62 x10E3/uL
  LYMPHOCYTE: 86.4%
  MEAN CORPUSCULAR HEMOGLOBIN: 21.6 pg
  MEAN CORPUSCULAR HEMOGLOBIN CONCENTRATION: 36.82 G/DL
  MEAN CORPUSCULAR VOLUME: 58.64 fL
  MONOCYTE: 2.2%
  NEUTROPHIL: 10.2%
  NUCLEATED RED BLOOD CELLS: 0 /100WBC
  PLATELET COUNT: 1058.6 x10E3/uL
  ALANINE AMINOTRANSFERASE: 31.2 u/L
  ALBUMIN: 4.2 G/DL
  ALKALINE PHOSPHATASE: 238.6 u/L
  ASPARTATE AMINOTRANSFERASE: 99.6 u/L
  BLOOD UREA NITROGEN: 13.8 mg/dL
  CARBON DIOXIDE: 30.8 mmol/L
  CHLORIDE: 102 MEQ/L
  CHOLESTEROL: 83.6 mg/dL
  CREATININE: 0.2 mg/dL
  GLUCOSE: 149.2 mg/dL
  LACTATE DEHYDROGENASE: 133.2 u/L
  LIPASE: 10.4 u/L
  PHOSPHORUS: 9.96 mg/dL
  POTASSIUM: 5.75 MEQ/L
  SODIUM: 145.2 MEQ/L
  TOTAL BILIRUBIN: 0.18 mg/dL
  TOTAL PROTEIN: 6.18 G/DL
  URIC ACID: 1 mg/dL
